Experimental findings from patent EP4782453A1 (Beyang Therapeutics Co., Ltd., priority 2023, dated 2025) are described below.

Like-named read-outs stand apart in the source and are kept apart here.

Experiment [1] relates to MOLM-13 (carrying MLL-AF9). The experiment can be described thus: Inhibition of proliferation of human tumor cells (Alamar Blue, 7 days), MOLM-13. Particulars: Homo sapiens, MOLM-13 cells (carrying MLL-AF9), method calls the value GI50. The experiment is classed as cell-based. The text has this:
Experimental Example 2: Evaluation of Inhibitory Activity of Compounds Against Proliferation of Human Tumor Cells
• Human acute lymphoblastic leukemia cells MV-4-11, purchased from American Type Culture Collection, Catalog Number: CRL-9591; • Human acute myeloid leukemia cells MOLM-13, purchased from COBIOER BIOSCIENCES CO., LTD, Catalog Number: CBP60678; • Human acute myeloid leukemia cells KG-1a, purchased from American Type Culture Collection, Catalog Number: CCL-246.1; • Inverted Microscope, purchased from Olympus Tokyo; • Countess™ Automated Cell Counter, purchased from Invitrogen, Model: C10281; and • Multilabel Reader, purchased from Bio-Tek, Model: Synergy HT.
MV-4-11 cells were cultured in an IMDM medium containing 10% fetal bovine serum, KG-a cells were cultured in an IMDM medium containing 20% fetal bovine serum, or MOLM-13 cells were cultured in an RPMI-1640 medium containing 20% fetal bovine serum, each supplemented with 100 U·mL^-1 penicillin and 100 µg·mL^-1 streptomycin. These cells were cultured at 37°C with 5% CO2. The suspensions of individual cell lines were prepared in their respective media and seeded into 96-well plates at a density of 4,000 cells/well for MV-4-11 and MOLM-13 cells, or 3,000 cells/well for KG-1a cells. On the day of the experiment, a compound stock solution was diluted in a 3-fold or 4-fold gradient using DMSO. Each gradient-diluted stock solution was then further diluted 250-fold with a complete medium to prepare a series of working solutions at different concentrations. Subsequently, 100 µL of working solution (containing a 2-fold concentration series of the test compound) was added to each well, with duplicate wells set up for each concentration.
Seven days after compound addition (on Day 7), an Alamar Blue assay reagent (MCE, HY-111391 / CS-0040317) was added to measure the fluorescence intensity in each well. Wells containing the cells in the growth medium supplemented with 0.1% DMSO (Day 7) served as high-read control wells. The readouts from the wells containing the cells in the growth medium supplemented with 0.1% DMSO on the day of compound addition (Day 0) served as low-reading control well. GraphPad Prism software was used to calculate the concentration required to inhibit 50% of cell proliferation (GI50), which serves as a cell proliferation inhibition activity index.

In a further experiment the target is T1, Menin-MLL (Homo sapiens, UniProt O00255).
T1 construct: His-Menin (M1-L615 end); purchased BIORTUS BP9210
T1 sequence (O00255 1-615 isoform O00255-1): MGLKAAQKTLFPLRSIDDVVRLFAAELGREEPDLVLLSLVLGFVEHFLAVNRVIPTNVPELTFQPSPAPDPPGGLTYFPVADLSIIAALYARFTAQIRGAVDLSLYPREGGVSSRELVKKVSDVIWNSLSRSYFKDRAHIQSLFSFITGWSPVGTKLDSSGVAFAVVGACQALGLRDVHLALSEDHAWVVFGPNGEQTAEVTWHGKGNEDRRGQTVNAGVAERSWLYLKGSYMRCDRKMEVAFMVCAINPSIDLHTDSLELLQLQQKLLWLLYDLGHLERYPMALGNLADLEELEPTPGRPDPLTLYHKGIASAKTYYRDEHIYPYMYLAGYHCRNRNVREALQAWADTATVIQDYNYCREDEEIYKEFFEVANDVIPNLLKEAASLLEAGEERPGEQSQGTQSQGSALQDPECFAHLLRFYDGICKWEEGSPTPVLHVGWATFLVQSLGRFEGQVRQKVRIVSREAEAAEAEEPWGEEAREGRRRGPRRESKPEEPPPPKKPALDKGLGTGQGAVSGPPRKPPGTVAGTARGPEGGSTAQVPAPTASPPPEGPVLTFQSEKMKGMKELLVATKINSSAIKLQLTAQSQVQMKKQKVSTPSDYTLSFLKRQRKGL
The experiment can be described thus: Inhibitory activity against Menin-MLL binding (fluorescence polarization). Particulars: 150 nM His-Menin, 15 nM FITC-MLL, 25°C for 60 min. Summed up:
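Fluorescence polarization competition: compound and 150 nM His-tagged menin (residues M1-L615) sit 15 min at 25 °C in pH 7.5 HEPES buffer with NaCl, DTT and BSA; 15 nM FITC-labelled MLL peptide then binds for 60 min. IC50 fitted sigmoidally from mP values, duplicate wells.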
(Fluorescence polarisation rises when a labelled molecule tumbles more slowly, as on binding a larger partner.)

Where [2] appears, read: fluorescence polarization, read-out: Menin-MLL IC50.
The mark [3] stands for this setting: Menin-MLL IC50, fluorescence polarization.

Broadly, the IC50 is the concentration that gives 50% inhibition. As for `CCN(C(=O)c1cc(F)ccc1-c1cc(C2CN([C@H](CCCN3CCC(NS(=O)(=O)CC)CC3)C(C)C)C2)cn2c(C)ncc12)C(C)C` [Example 408, 2-(6-{1-[(3R)-6-(4-ethanesulfonamidopiperidin-1-yl)-2-methylhexan-3-yl]azacyclobutan-3-yl}-3-methylimidazo[1,5-a]pyridin-8-yl)-N-ethyl-5-fluoro-N-(isopropyl)benzamide], the values for the IC50 (in experiment [1] (168 h); at Menin-MLL (setting [2])) were 4.2 nM and 1.7 nM, respectively.
In the same order, the values of `CCN(C(=O)c1cc(F)ccc1-c1cc(C2CN([C@H](CCCN3CC4(C3)CN(C(C)=O)C4)C(C)C)C2)cc2c1cnn2C)C(C)C` [Example 409] are 31 nM and 4 nM.
On the same counts, the results for `CCN(C(=O)c1cc(F)ccc1-c1cc(C2CN([C@H](CCCN3CCN(CCF)CC3)C(C)C)C2)cc2c1cnn2C)C(C)C` [Example 410] are 37 nM and 5.8 nM.
On the same counts, the results for `CCN(C(=O)c1cc(F)ccc1-c1cc(C2CN([C@H](CCCN3CCC(NS(=O)(=O)CC)CC3)C(C)C)C2)cc2c1cnn2C)C(C)C` [Example 411] are 12 nM and 2.7 nM.
With `CCN(C(=O)c1cc(F)ccc1-c1cc(C2CN([C@H](CCCN3CCN(C[C@H](O)CO)CC3)C(C)C)C2)cc2c1cnn2C)C(C)C` [Example 412], the IC50 in experiment [1] (168 h) came out at 39 nM; on Menin-MLL (setting [2]), 6.8 nM.
In the same order, the values of `CCN(C(=O)c1cc(F)ccc1-c1cc(C2CN([C@H](CCCN3CCN(C[C@@H](O)CO)CC3)C(C)C)C2)cc2c1cnn2C)C(C)C` [Example 413] are 45 nM and 6.9 nM.
On to `CCN(C(=O)c1cc(F)ccc1-c1cc(C2CN([C@H](CN3CCN(CCO)CC3)C(C)C)C2)cc2c1cnn2C)C(C)C` [Example 416-2, N-ethyl-5-fluoro-2-(6-{1-[(2S)-1-[4-(2-hydroxyethyl)piperazin-1-yl]-3-methylbutan-2-yl]azacyclobutan-3-yl}-1-methyl-1H-indazol-4-yl)-N-(isopropyl)benzamide], for which the IC50 in experiment [1] (168 h) came to 69 nM; at Menin-MLL (setting [2]), 10.6 nM.
On the same counts, the results for `CCN(C(=O)c1cc(F)ccc1-c1cc(C2CN([C@H](CN3CCN(C(CO)CO)CC3)C(C)C)C2)cc2c1cnn2C)C(C)C` [Example 419] are 85 nM and 8.1 nM.
On the same counts, the results for `CCC(=O)NC1CCN(CCC[C@H](C(C)C)N2CC(c3cc(-c4ccc(F)cc4C(=O)N(CC)C(C)C)c4cnc(C)n4c3)C2)CC1` [Example 425] are 9.9 nM and 2.7 nM.
In the same order, the values of `CCN(C(=O)c1cc(F)ccc1-c1cc(C2CN([C@H](CCCN3C4COCC3C4)C(C)C)C2)cc2c1cnn2C)C(C)C` [Example 426] are 30 nM and 3.2 nM.
`CCN(C(=O)c1cc(F)ccc1-c1cc(C2CN([C@H](CN3CCN(C[C@H](O)CO)CC3)C(C)C)C2)cn2c(C)ncc12)C(C)C` [Example 428]: the IC50 in experiment [1] (168 h) is 52 nM; at Menin-MLL (setting [2]), 3.7 nM.
On to `CCN(C(=O)c1cc(F)ccc1-c1cc(C2CN([C@H](CN3CCN(C[C@@H](O)CO)CC3)C(C)C)C2)cn2c(C)ncc12)C(C)C` [Example 429], for which the IC50 in experiment [1] (168 h) stood at 25 nM; on Menin-MLL (setting [2]), 2.6 nM.
On the same counts, the results for `CCN(C(=O)c1cc(F)ccc1-c1cc(C2CN([C@H](CN3CCN(CCOC)CC3)C(C)C)C2)cn2c(C)ncc12)C(C)C` [Example 430] are 46 nM and 8.4 nM.
On the same counts, the results for `CCN(C(=O)c1cc(F)ccc1-c1cc(C2CN([C@H](CCCN3CCN(C(CO)CO)CC3)C(C)C)C2)cc2c1cnn2C)C(C)C` [Example 433, 2-(6-{1-[(3R)-6-[4-(1,3-dihydroxylpropan-2-yl)piperazin-1-yl]-2-methylhexan-3-yl]azacyclobutan-3-yl}-1-methyl-1H-indazol-4-yl)N-ethyl-5-fluoro-N-(isopropyl)benzamide] are 18 nM and 3.3 nM.
On to `CCN(C(=O)c1cc(F)ccc1-c1cc(C2CN([C@H](CN3CCN(C[C@@H](O)CO)CC3)C(C)C)C2)cc2c1cnn2C)C(C)C` [Example 434], for which the IC50 in experiment [1] (MOLM-13, 168 h) turned out to be 32 nM; at Menin-MLL (setting [3]), 8.8 nM.
Turning to `CCN(C(=O)c1cc(F)ccc1-c1cc(C2CN([C@H](CN3CCN(C(CO)CO)CC3)C(C)C)C2)cn2c(C)ncc12)C(C)C` [Example 435], the IC50 in experiment [1] (168 h) amounted to 26 nM; at Menin-MLL (setting [2]), 4.9 nM.
On the same counts, the results for `Cc1ncc2c(-c3ccc(F)cc3C(=O)N(C)C(C)C)cc(C3CN(C(CCCN4CCN(C)CC4)C(C)C)C3)cn12` (stereo not drawn) [Example 436, 5-fluoro-N-methyl-2-(3-methyl-6-{1-[2-methyl-6-(4-methylpiperazin-1-yl)hexan-3-yl]azacyclobutan-3-yl}imidazo[1,5-a]pyridin-8-yl)-N-(isopropyl)benzamide] are 42 nM and 8.3 nM.
For the compound `CCN(C(=O)c1cc(F)ccc1-c1cc(C2CN([C@H](CN3CCN(C[C@H](O)CO)CC3)C(C)C)C2)cc2c1cnn2C)C(C)C` [Example 440], the 50% inhibitory concentration (IC50) in experiment [1] (MOLM-13, 168 h) came to 56 nM; on Menin-MLL (setting [3]), 8.9 nM.
`CCN(C(=O)c1cc(F)ccc1-c1cc(C2CN([C@H](CN3CCS(=O)(=O)CC3)C(C)C)C2)cn2c(C)ncc12)C(C)C` [Example 441-1, 2-(6-{1-[(2S)-1-(1,1-dioxo-thiomorpholin-4-yl)-3-methylbutan-2-yl]azacyclobutan-3-yl}-3-methylimidazo[1,5-a]pyridin-8-yl)-N-ethyl-5-fluoro-N-(isopropyl)benzamide]: the values for the IC50 (in experiment [1] (168 h); at Menin-MLL (setting [2])) were 75 nM and 11 nM, respectively.
As for `CCN(C(=O)c1cc(F)ccc1-c1cc(C2CN(C(CC3COCCO3)C(C)C)C2)cn2c(C)ncc12)C(C)C` (stereo not drawn) [Example 445, 2-(6-{1-[1-(1,4-dioxane-2-yl)-3-methylbutan-2-yl]azacyclobutan-3-yl}-3-methylimidazo[1,5-a]pyridin-8-yl)-N-ethyl-5-fluoro-N-(isopropyl)benzamide], the IC50 in experiment [1] (168 h) worked out at 68 nM; at Menin-MLL (setting [2]), 20 nM.
On to `Cc1ncc2c(-c3ccc(F)cc3C(=O)N(C)C(C)C)cc(C3CN([C@H](CCCN4CCN(CCO)CC4)C(C)C)C3)cn12` [Example 448-2], for which the IC50 was 13 nM in experiment [1] (MOLM-13, 168 h) and 2.2 nM at Menin-MLL (setting [2]).
With `CCN(C(=O)c1cc(F)ccc1-c1cc(C2CN([C@H](CC[C@@H]3COCCN3)C(C)C)C2)cn2c(C)ncc12)C(C)C` [Example 449-1, N-ethyl-5-fluoro-2-(3-methyl-6-{1-[(3R)-4-methyl-1-[(3R)-morpholin-3-yl]pentan-3-yl]azacyclobutan-3-yl}imidazo[1,5-a]pyridin-8-yl)-N-(isopropyl)benzamide], the IC50 was 6.1 nM in experiment [1] (168 h) and 2.6 nM on Menin-MLL (setting [2]).
On the same counts, the results for `CCN(C(=O)c1cc(F)ccc1-c1cc(C2CN([C@H](CCCN3CCO[C@H](CO)C3)C(C)C)C2)cn2c(C)ncc12)C(C)C` [Example 450] are 21 nM and 5.2 nM.
On the same counts, the results for `CCN(C(=O)c1cc(F)ccc1-c1cc(C2CN([C@H](CCCN3CCO[C@@H](CO)C3)C(C)C)C2)cn2c(C)ncc12)C(C)C` [Example 451] are 25 nM and 4.7 nM.
